Data set [1] concerns pulmonary metastases. Put plainly: antimetastatic capacity: reduction in number and weight of pulmonary metastases developed after intramuscular inoculation of carcinoma cells. The settings on record: 10 mg/kg as a curative treatment for 9 days. The class given is in vivo. The procedure:
The antimetastatic capacity of the compounds of the present invention is measured by the reduction, compared with untreated animals, in the number and weight of pulmonary metastases developed after intramuscular inoculation of carcinoma cells.

Data set [2] relates to pyruvic glutamic transaminase. Briefly: hepatic toxicity (Wroblewski's method), pyruvic glutamic transaminase activity in serum. It counts as in vivo, Long Evans rats. How it is done:
The hepatic toxicity is assessed according to Wroblewski's method by measuring the pyruvic glutamic transaminase activity contained in the serum from Long Evans rats treated with an intraperitoneal injection of 25 mg/kg of BCNU or with equipotential doses of the compounds according to the invention.

In data set [3] the test system is tumour-bearing mice (tumorous cells inoculated by intraperitoneal or intramuscular route). Put plainly: capacity to increase the life-span of mice bearing tumorous cells (NCI protocols, Geran et al.). It counts as in vivo. The following applies: 5 mg/kg. The procedure: The compounds according to the invention are tested by their capacity to increase the life-span of mice bearing tumorous cells inoculated by intraperitoneal or intramuscular route in accordance with the protocols edicted by the National Cancer Institute (U.S.A.) and published by R. I. GERAN et al. in Cancer Chemotherapy Reports 1972, part III, Vol. 3 (2), 1-87.
Given per os, these compounds increase the life-span of tumor-bearing animals. The rate of effectiveness of the active doses per os over the active dose by intraperitoneal route is greater for the compounds according to the invention than for the reference products (F. SPREAFICO et al. in Nitrosoureas: current status and new developments, A. W. PRESTAYKO et al. editors, 1981, Academic Press (New York); Experimental Evaluation of Antitumor Drugs in the USA and USSR and clinical correlations; National Cancer Institute Monograph No. 55; National Institutes of Health USA 1980).

Results on two compounds are retold here after patent US4567169A, “Nitrosourea substituted phosphonates and pharmaceutical use” (priority 1982, dated 1986).

Structures are written as SMILES.

With `CCOP(=O)(OCC)C(C)NC(=O)N(CCCl)N=O` (stereo not shown) [Example 4, 1-[N-(2-chloroethyl)-N-nitrosoureido]ethylphosphonic acid diethyl ester], the formation of metastases result in data set [1] is “prevents the formation of metastases”. For the same compound, the “serum pyruvic glutamic transaminase level” value in data set [2] (25 mg/kg, Long Evans rats) was “does not lead to an increase in the enzyme level outside the range usually found in untreated rats”. Also, the long-term survivors result in data set [3] was “inducing long-term survivors”.
As to `O=NN(CCCl)C(=O)NCCCl` [BCNU, N-N'-bis(2-chloroethyl)-N-nitrosourea, reference compound], in data set [2] (intraperitoneal injection of 25 mg/kg of BCNU or equipotential doses of the compounds), the hepatic toxicity entry is on record as “notable hepatic toxicity”.
